Source: PubChem BioAssay (NCI)
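A five-concentration, 48-hour dose response in 96-well plates underlies each endpoint, interpolated linearly between surrounding concentrations. TGI marks complete inhibition of growth.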

Assays:
Experiment in all cases: DTP human tumour cell line panel, 48 h
UO-31 renal = tested on: UO-31 renal
RPMI-8226 leukemia = tested on: RPMI-8226 leukemia
MDA-N = tested on: MDA-N
UACC-257 melanoma = tested on: UACC-257 melanoma
HL-60(TB) leukemia = tested on: HL-60(TB) leukemia
PC-3 prostate = tested on: PC-3 prostate
MDA-MB-435 = tested on: MDA-MB-435
UACC-62 melanoma = tested on: UACC-62 melanoma
CCRF-CEM leukemia = tested on: CCRF-CEM leukemia
MOLT-4 leukemia = tested on: MOLT-4 leukemia
LOX IMVI melanoma = tested on: LOX IMVI melanoma
SW-620 colon = tested on: SW-620 colon
KM12 colon = tested on: KM12 colon
M14 melanoma = tested on: M14 melanoma
MALME-3M melanoma = tested on: MALME-3M melanoma
HCC-2998 colon = tested on: HCC-2998 colon
SK-MEL-28 melanoma = tested on: SK-MEL-28 melanoma
HOP-62 NSCLC = tested on: HOP-62 NSCLC
HCT-15 colon = tested on: HCT-15 colon
786-0 renal = tested on: 786-0 renal
RXF 393 renal = tested on: RXF 393 renal
SK-OV-3 ovarian = tested on: SK-OV-3 ovarian
SNB-75 CNS = tested on: SNB-75 CNS
SN12C renal = tested on: SN12C renal
U251 CNS = tested on: U251 CNS
ACHN renal = tested on: ACHN renal
A549 NSCLC = tested on: A549 NSCLC
SF-539 CNS = tested on: SF-539 CNS
NCI/ADR-RES ovarian = tested on: NCI/ADR-RES ovarian
HOP-92 NSCLC = tested on: HOP-92 NSCLC
NCI-H226 lung = tested on: NCI-H226 lung
EKVX NSCLC = tested on: EKVX NSCLC
SK-MEL-2 melanoma = tested on: SK-MEL-2 melanoma
MDA-MB-231 breast = tested on: MDA-MB-231 breast
SNB-19 CNS = tested on: SNB-19 CNS
BT-549 breast = tested on: BT-549 breast
DU-145 prostate = tested on: DU-145 prostate
SF-295 CNS = tested on: SF-295 CNS
SK-MEL-5 melanoma = tested on: SK-MEL-5 melanoma
OVCAR-4 ovarian = tested on: OVCAR-4 ovarian
OVCAR-5 ovarian = tested on: OVCAR-5 ovarian
SF-268 CNS = tested on: SF-268 CNS
OVCAR-3 ovarian = tested on: OVCAR-3 ovarian
K-562 leukemia = tested on: K-562 leukemia
OVCAR-8 ovarian = tested on: OVCAR-8 ovarian
SR leukemia = tested on: SR leukemia
CAKI-1 renal = tested on: CAKI-1 renal
TK-10 renal = tested on: TK-10 renal
NCI-H23 lung = tested on: NCI-H23 lung
HT29 colon = tested on: HT29 colon
HS 578T breast = tested on: HS 578T breast
NCI-H522 lung = tested on: NCI-H522 lung
COLO 205 colon = tested on: COLO 205 colon
T-47D breast = tested on: T-47D breast
MCF7 breast = tested on: MCF7 breast
IGROV1 ovarian = tested on: IGROV1 ovarian
HCT-116 colon = tested on: HCT-116 colon
NCI-H460 lung = tested on: NCI-H460 lung
A498 renal = tested on: A498 renal

Measured: TGI

O=c1[nH]c2nc3ccccc3c(=O)n2/c1=C/c1cccs1
not listed: NCI-H460 lung | A498 renal
> 100 µM: all other assays above

Cc1[nH]n(-c2nc(O)c(-c3ccccc3)c(=O)[nH]2)c(=O)c1CCO
not listed: LOX IMVI melanoma | HCC-2998 colon | HOP-62 NSCLC | OVCAR-3 ovarian
> 100 µM: all other assays above
